Measured values as given in patent US10023558B2, “Compounds” (CHIESI FARMACEUTICI S.P.A., priority 2016, dated 2018).

Target: T1, human neutrophil elastase (HNE) (Homo sapiens, UniProt P08246)
T1 construct: purchased Sigma E8140
T1 sequence (P08246 30-247 limits assumed): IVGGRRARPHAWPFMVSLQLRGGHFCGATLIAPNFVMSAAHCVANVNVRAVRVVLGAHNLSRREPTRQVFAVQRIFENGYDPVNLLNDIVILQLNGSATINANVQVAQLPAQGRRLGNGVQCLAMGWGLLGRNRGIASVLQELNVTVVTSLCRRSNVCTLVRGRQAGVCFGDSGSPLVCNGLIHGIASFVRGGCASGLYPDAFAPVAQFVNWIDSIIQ
Experiment: HNE Enzyme Assay (fluorogenic peptide substrate MeOSuc-Ala-Ala-Pro-Val-AMC)
Type: biochemical
Conditions: human leukocyte elastase 0.00072 U/mL, substrate 100 μM, 25° C., 30 minutes, at least two separate experiments; read-out: HNE inhibition (IC50 values)
Procedure: Compounds of this invention were tested for potency in a human neutrophil elastase (HNE) enzyme activity assay.
Assays were performed in 96-well plates in a total assay volume of 100 μL. The final concentration of elastase enzyme (human leukocyte elastase, Sigma E8140) was 0.00072 U/mL. The peptide substrate (MeOSuc-Ala-Ala-Pro-Val-AMC, Calbiochem #324740) was used at a final concentration of 100 μM. The final concentration of DMSO was 1% in the assay buffer (0.05M Tris.HCl, 0.1M NaCl, 0.1M CaCl2, 0.0005% Brij-35, pH 7.5). The enzymatic reaction was started by addition of the enzyme and incubated at 25° C. for 30 minutes. After incubation, the reaction was stopped by addition of soybean trypsin inhibitor (Sigma T9003) at a final concentration of 50 μg/well. Fluorescence was measured using a Molecular Devices fluorescence plate reader using 380 nm excitation and 460 nm emission wavelengths.
A concentration response to each compound was performed and the effect of compound in each experiment was expressed as a percentage inhibition of the control enzyme fluorescence. Dose response curves were plotted and compound potency (IC50) was determined. Compounds were tested in at least two separate experiments.

Structure (SMILES) | IC50 [nM]
Cc1c(-c2ccnn2-c2ccc(C#N)cc2)n(C(=O)N[C@@H]2C[C@H]3CC[C@@H](C2)[N+]3(C)C)c(=O)n1-c1cccc(C(F)(F)F)c1 [Example 39, (1R,3S,5S)-3-{[5-[2-(4-Cyano-phenyl)-2H-pyrazol-3-yl]-4-methyl-2-oxo-3-(3-trifluoromethyl-phenyl)-2,3-dihydro-imidazole-1-carbonyl]-amino}-8,8-dimethyl-8-azonia-bicyclo[3.2.1]octane benzene sulfonate] | < 1
CC[N+]1(CC)CCC(NC(=O)n2c(-c3ccnn3-c3ccc(C#N)cc3)c(C)n(-c3cccc(C(F)(F)F)c3)c2=O)CC1 [Example 40, 4-{[5-[2-(4-Cyano-phenyl)-2H-pyrazol-3-yl]-4-methyl-2-oxo-3-(3-trifluoromethyl-phenyl)-2,3-dihydro-imidazole-1-carbonyl]-amino}-1,1-diethyl-piperidinium benzene sulfonate] | < 1
Cc1c(-c2ccnn2-c2ccc(C#N)cc2)n(C(=O)N[C@H]2CC[C@H]([N+](C)(C)C)CC2)c(=O)n1-c1cccc(C(F)(F)F)c1 [Example 41, (Trans-4-{[5-[2-(4-cyano-phenyl)-2H-pyrazol-3-yl]-4-methyl-2-oxo-3-(3-trifluoromethyl-phenyl)-2,3-dihydro-imidazole-1-carbonyl]-amino}-cyclohexyl)-trimethyl-ammonium benzene sulfonate] | < 1
CC[n+]1ccc([C@H](C)NC(=O)n2c(-c3ccnn3-c3ccc(C#N)cc3)c(C)n(-c3cccc(C(F)(F)F)c3)c2=O)cc1 [Example 42, 4-((S)-1-{[5-[2-(4-Cyano-phenyl)-2H-pyrazol-3-yl]-4-methyl-2-oxo-3-(3-trifluoromethyl-phenyl)-2,3-dihydro-imidazole-1-carbonyl]-amino}-ethyl)-1-ethyl-pyridinium benzene sulfonate] | < 1
Cc1c(-c2ccnn2-c2ccc(C#N)cc2)n(C(=O)N[C@H]2CC[C@H]([N+](C)(C)Cc3ccccc3)CC2)c(=O)n1-c1cccc(C(F)(F)F)c1 [Example 43, Benzyl-(trans-4-{[5-[2-(4-cyano-phenyl)-2H-pyrazol-3-yl]-4-methyl-2-oxo-3-(3-trifluoromethyl-phenyl)-2,3-dihydro-imidazole-1-carbonyl]-amino}-cyclohexyl)-dimethyl-ammonium bromide] | < 1
CC[N+](C)(C)[C@H]1CC[C@H](NC(=O)n2c(-c3ccnn3-c3ccc(C#N)cc3)c(C)n(-c3cccc(C(F)(F)F)c3)c2=O)CC1 [Example 44, (Trans-4-{[5-[2-(4-cyano-phenyl)-2H-pyrazol-3-yl]-4-methyl-2-oxo-3-(3-trifluoromethyl-phenyl)-2,3-dihydro-imidazole-1-carbonyl]-amino}-cyclohexyl)-ethyl-dimethyl-ammonium benzene sulfonate] | < 1
Cc1c(-c2ccnn2-c2ccc(C#N)cc2)n(C(=O)N[C@H]2CC[C@@H]([N+](C)(C)C)CC2)c(=O)n1-c1cccc(C(F)(F)F)c1 [Example 45, (Cis-4-{[5-[2-(4-cyano-phenyl)-2H-pyrazol-3-yl]-4-methyl-2-oxo-3-(3-trifluoromethyl-phenyl)-2,3-dihydro-imidazole-1-carbonyl]-amino}-cyclohexyl)-trimethyl-ammonium benzene sulfonate] | 1 to 10
Cc1c(-c2ccnn2-c2ccc(C#N)cc2)n(C(=O)N[C@H]2CC[C@@H]([N+](C)(C)Cc3ccccc3)CC2)c(=O)n1-c1cccc(C(F)(F)F)c1 [Example 46, Benzyl-(cis-4-{[5-[2-(4-cyano-phenyl)-2H-pyrazol-3-yl]-4-methyl-2-oxo-3-(3-trifluoromethyl-phenyl)-2,3-dihydro-imidazole-1-carbonyl]-amino}-cyclohexyl)-dimethyl-ammonium bromide] | 1 to 10
Cc1c(-c2ccnn2-c2ccc(C#N)cc2)n(C(=O)NC(C)(C)c2cc[n+](C)cc2)c(=O)n1-c1cccc(C(F)(F)F)c1 [Example 47, 4-(1-{[5-[2-(4-Cyano-phenyl)-2H-pyrazol-3-yl]-4-methyl-2-oxo-3-(3-trifluoromethyl-phenyl)-2,3-dihydro-imidazole-1-carbonyl]-amino}-1-methyl-ethyl)-1-methyl-pyridinium benzene sulfonate] | < 1
CC[N+](C)(C)[C@H]1CC[C@@H](NC(=O)n2c(-c3ccnn3-c3ccc(C#N)cc3)c(C)n(-c3cccc(C(F)(F)F)c3)c2=O)CC1 [Example 48, (Cis-4-{[5-[2-(4-cyano-phenyl)-2H-pyrazol-3-yl]-4-methyl-2-oxo-3-(3-trifluoromethyl-phenyl)-2,3-dihydro-imidazole-1-carbonyl]-amino}-cyclohexyl)-ethyl-dimethyl-ammonium benzene sulfonate] | 1 to 10
Cc1c(-c2ccnn2-c2ccc(C#N)cc2)n(C(=O)N[C@@H](C)C(=O)N2CC[N+](C)(Cc3ccccc3)CC2)c(=O)n1-c1cccc(C(F)(F)F)c1 [Example 49, 1-Benzyl-4-((S)-2-{[5-[2-(4-cyano-phenyl)-2H-pyrazol-3-yl]-4-methyl-2-oxo-3-(3-trifluoromethyl-phenyl)-2,3-dihydro-imidazole-1-carbonyl]-amino}-propionyl)-1-methyl-piperazin-1-ium bromide] | < 1
Cc1c(-c2ccnn2-c2ccc(C#N)cc2)n(C(=O)N[C@@H](C)C(=O)N2CC[N+](C)(C)CC2)c(=O)n1-c1cccc(C(F)(F)F)c1 [Example 50, 4-((S)-2-{[5-[2-(4-Cyano-phenyl)-2H-pyrazol-3-yl]-4-methyl-2-oxo-3-(3-trifluoromethyl-phenyl)-2,3-dihydro-imidazole-1-carbonyl]-amino}-propionyl)-1,1-dimethyl-piperazin-1-ium benzene sulfonate] | < 1
Cc1c(-c2ccnn2-c2ccc(C#N)cc2)n(C(=O)NC2CC3(CC[N+](C)(C)CC3)C2)c(=O)n1-c1cccc(C(F)(F)F)c1 [Example 51, 2-{[5-[2-(4-Cyano-phenyl)-2H-pyrazol-3-yl]-4-methyl-2-oxo-3-(3-trifluoromethyl-phenyl)-2,3-dihydro-imidazole-1-carbonyl]-amino}-7,7-dimethyl-7-azonia-spiro[3.5]nonane benzene sulfonate] | < 1
Cc1c(-c2ccnn2-c2ccc(C#N)cc2)n(C(=O)N[C@H](C)c2cc[n+](C)cc2)c(=O)n1-c1cccc(C(F)(F)F)c1 [Example 52, 4-((R)-1-{[5-[2-(4-Cyano-phenyl)-2H-pyrazol-3-yl]-4-methyl-2-oxo-3-(3-trifluoromethyl-phenyl)-2,3-dihydro-imidazole-1-carbonyl]-amino}-ethyl)-1-methyl-pyridinium benzene sulfonate] | 1 to 10
Cc1c(-c2ccnn2-c2ccc(C#N)cc2)n(C(=O)N[C@H]2CC[C@@H](C[N+](C)(C)C)CC2)c(=O)n1-c1cccc(C(F)(F)F)c1 [Example 53, (Cis-4-{[5-[2-(4-cyano-phenyl)-2H-pyrazol-3-yl]-4-methyl-2-oxo-3-(3-trifiuoromethyl-phenyl)-2,3-dihydro-imidazole-1-carbonyl]-amino}-cyclohexylmethyl)-trimethyl-ammonium benzene sulfonate] | 1 to 10
Cc1c(-c2ccnn2-c2ccc(C#N)cc2)n(C(=O)N[C@H]2CC[C@@H](C[N+](C)(C)Cc3ccccc3)CC2)c(=O)n1-c1cccc(C(F)(F)F)c1 [Example 54, Benzyl-(cis-4-{[5-[2-(4-cyano-phenyl)-2H-pyrazol-3-yl]-4-methyl-2-oxo-3-(3-trifiuoromethyl-phenyl)-2,3-dihydro-imidazole-1-carbonyl]-amino}-cyclohexylmethyl)-dimethyl-ammonium bromide] | 1 to 10
